{
  "source": "paper PMC12706794",
  "about": "“Identification and Characterization of a Small-Molecule Inhibitor of the Pseudomonas aeruginosa SOS Response” (ACS Infectious Diseases, 2025)",
  "key": {"LexAPa S125A": {"target": "T1, LexAPa S125A (Pseudomonas aeruginosa, UniProt P37452, S125A)", "T1 construct": "Concerning full-length LexAPa ^S125A, a biphasic melting curve was obtained for the pure protein; made in house; host or cells: E. coli BL21(DE3)", "T1 sequence (P37452 2-204 S125A)": "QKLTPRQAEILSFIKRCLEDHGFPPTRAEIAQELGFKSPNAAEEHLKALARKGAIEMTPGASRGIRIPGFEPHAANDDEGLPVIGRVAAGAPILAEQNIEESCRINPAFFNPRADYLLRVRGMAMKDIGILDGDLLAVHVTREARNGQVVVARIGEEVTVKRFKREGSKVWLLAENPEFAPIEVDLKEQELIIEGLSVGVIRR", "test": "Differential scanning fluorimetry (thermal shift) on LexAPa S125A", "assay_type": "binding, P. aeruginosa", "settings": "A12 above 100 μM", "protocol": "To elucidate whether A12 binds RecAPa or LexAPa, the two proteins were submitted to a thermal shift assay by DSF, in the presence of different concentrations of A12 (30–1000 μM; Figure A–C). Controls devoid of A12 were included, as well.\nFluorescence of the SyproOrange dye was measured by a StepOne Real-Time PCR System (Applied Biosystems), while increasing the temperature from 25 to 95 °C (0.5 °C/min). Normalized fluorescence intensity curves were compared to observe macroscopic differences in the recorded melting profiles, while derivative curves were analyzed to find exact protein melting temperatures (T m, corresponding to derivative curve minimum). Melting curves were repeated twice, and duplicates were considered coherent if T m differences were lower than 1 °C."}, "P. aeruginosa PAO1": {"tested_on": "P. aeruginosa PAO1", "test": "Antimicrobial susceptibility testing (MIC)", "assay_type": "cell-based, P. aeruginosa PAO1 (ATCC 15692)", "settings": "A12 (32 μg/mL) (−)", "protocol": "The MIC of compound A12 and antibiotics was determined by using the Clinical Laboratory Standard Institute (CLSI) recommendations with minor modifications. […] Microplates were incubated in a humidified incubator for 18 h at 37 °C, and the bacterial growth was quantified by OD600. According to CLSI, MICs are defined as the lowest concentrations of antimicrobial agents that prevent visible growth."}, "[1]": {"target": "T2, RecAPa*-induced full-length LexAPa autoproteolysis (Pseudomonas aeruginosa, UniProt P37452)", "T2 construct": "Full-length LexAPa was used instead of FlAsH-LexAPa ^CTD; made in house; host or cells: E. coli BL21(DE3)", "T2 sequence (P37452 2-204)": "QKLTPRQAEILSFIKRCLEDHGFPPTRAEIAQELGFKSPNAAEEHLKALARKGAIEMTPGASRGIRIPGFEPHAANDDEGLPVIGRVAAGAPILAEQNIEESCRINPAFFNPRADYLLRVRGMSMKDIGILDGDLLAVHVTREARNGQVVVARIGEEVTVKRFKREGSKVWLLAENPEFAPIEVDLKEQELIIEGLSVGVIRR", "test": "RecAPa*-induced LexAPa autoproteolysis assay by SDS-PAGE", "assay_type": "biochemical, P. aeruginosa", "settings": "1 μM full-length LexAPa, 1 μM RecA*Pa, 1 h at 37 °C", "protocol": "To further validate the activity of A12 on RecA*Pa-LexAPa, an assay was performed using full-length LexAPa, and autoproteolysis was followed by SDS-PAGE in the presence of different concentrations of A12 (Figure E). Cleavage reactions were performed at 1 μM full-length LexAPa, initiated by the addition of 1 μM RecA*Pa, and stopped after a 1 h incubation at 37 °C, corresponding to the same conditions used for the FP assay.\nSDS-PAGE was used as an orthogonal technique to FP to validate the dose-dependent inhibition of RecAPa*-induced LexAPa autocleavage by the selected hit compound.\nFull-length LexAPa was used instead of FlAsH-LexAPa ^CTD, but reaction volumes, molar concentrations of reagents, incubation time, and temperature were kept the same as in the FP-based assay. Following 1 h of incubation at 37 °C in the presence of RecAPa*, reactions were stopped by adding Laemmli solubilization buffer and freezing the samples at −20 °C.\nSamples were boiled 5 min at 95 °C before being loaded on 4–12% polyacrylamide gels. After Coomassie staining of the gels, the intensity of the bands corresponding to LexAPa and its autoproteolytic fragments was quantified using ImageJ. Data obtained from LexACTD/NTD bands densitometry were used to estimate LexA self-cleavage percent inhibition (scaling all the data from 0%, positive control, to 100%, negative control). […]"}, "[2]": {"target": "T3, RecAPa*-induced FlAsH-LexAPa CTD autoproteolysis (Pseudomonas aeruginosa, UniProt P37452)", "T3 construct": "6His-SUMO (N, cleaved yes); made in house; host or cells: E. coli BL21(DE3)", "T3 sequence (P37452 81-204)": "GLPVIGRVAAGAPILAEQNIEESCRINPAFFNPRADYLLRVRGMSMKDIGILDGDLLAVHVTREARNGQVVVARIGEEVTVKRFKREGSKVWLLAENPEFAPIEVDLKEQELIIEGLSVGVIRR", "test": "FP-based RecA*-induced LexA autoproteolysis in vitro assay", "assay_type": "biochemical, P. aeruginosa", "protocol": "A custom-made library of 318 small molecules (MW < 1000 Da) has been screened at two different concentrations (25 μg/mL and 125 μg/mL, corresponding to molar concentrations of 30–170 μM and 150–850 μM, respectively) on the P. aeruginosa SOS system by a previously validated fluorescence polμarization (FP)-based RecA*-induced LexA autoproteolysis in vitro assay. , 1 μM FlAsH-LexAPa ^CTD and 1 μM preactivated RecA*Pa were incubated with the screened chemical fragments for 1 h at 37 °C before measuring FP.\nThen, the FP-based LexA autoproteolysis assay was repeated on the two hits, monitoring the full kinetics of LexA cleavage over a 1 h incubation and exploring a wide range of drug concentrations (10–1000 μM).\nA custom-made library of 318 chemical fragments (25 mg/mL stock solutions in DMSO), provided by P. Kavaliauskas (Weill Cornell Medicine of Cornell University) was screened in vitro for their ability to inhibit RecAPa*-mediated LexAPa autoproteolysis by a Fluorescence Polarization (FP)-based assay. , Twenty microliter reactions were set up in Nunc 384-Well Black microplates, and final reaction mixtures included 1 μM FlAsH-LexAPa ^CTD, the compounds (5% v/v DMSO in all the samples, including the controls devoid of compounds), and 1 μM RecAPa* (FP Buffer in the negative control; 30 mM Hepes, 150 mM NaCl, pH 7.1). The initial screening was performed with two dilutions of the compounds (25 and 125 μg/mL). The FP signal was measured after a 1 h incubation at 37 °C by an EnVision MultiMode Plate Reader (PerkinElmer) equipped with opportune FP filters and mirrors. To obtain LexAPa ^CTD autoproteolysis percent inhibition, FP data were scaled from 0% (corresponding to the positive control sample) to 100% (negative control).\nCompounds displaying an inhibition of at least 50% at the highest concentration and a rather consistent increase in activity at the two tested concentrations were selected as the hits.\nThe same FP assay was carried out on serial dilutions of selected compounds to determine the dose–response relationship. To evaluate the effect of a reducing environment, 2 mM Tris(2-carboxyethyl)-phosphine (TCEP) was added to the reaction mixtures. The FP signal of FlAsH-LexAPa ^CTD alone was detected for 5 min before adding the compounds. The system was monitored for an additional 5 min in the presence of the tested compounds in order to observe potential aggregation events. Then, RecAPa* was added, and the autoproteolysis reaction was followed for 1 h at 37 °C (1 reading per minute). FlAsH-LexAPa ^CTD autoproteolysis percent inhibition was calculated as mentioned above and plotted as a function of compound concentration. Experimental data fitting was performed with GraphPad Prism 8 to obtain the absolute IC50."}},
  "data": [
    {"compound": "O=C(O)CCNc1ccccc1S", "note": "[A12, 3-(2-sulfanylanilino)propanoic acid]", "values": [
      {"measurement": "LexAPa S125A flexus of monophasic melting curve", "setting": "LexAPa S125A", "value": 52.0, "unit": "°C"},
      {"measurement": "MIC on P. aeruginosa PAO1", "setting": "P. aeruginosa PAO1", "value": "no antimicrobial activity"},
      {"measurement": "MIC", "setting": "P. aeruginosa PAO1; Pseudomonas aeruginosa, PAO1", "value": "> 32", "unit": "µg/mL"},
      {"measurement": "IC50", "setting": "[1]", "value": "58 ± 5", "unit": "µM"},
      {"measurement": "IC50", "setting": "[2]; 1 μM FlAsH-LexAPa CTD, 1 μM RecAPa*, 1 h at 37 °C, read-out: IC50 on RecA*Pa-induced LexAPa autoproteolysis (FP assay)", "value": "295 ± 12", "unit": "µM"},
      {"measurement": "A12 inhibitory activity under reducing conditions compared to nonreducing", "setting": "[2]; 2 mM TCEP", "value": "significantly diminished"},
      {"measurement": "inhibition at 125 µg/mL", "setting": "[2]; compound at 125 μg/mL, 1 h at 37 °C, read-out: LexA autoproteolysis inhibition in initial library screening", "value": "> 50", "unit": "%"}
    ]}
  ]
}
